Results on four compounds are retold here after patent US11344553B2, “Substituted pyrazolopyrimidines useful as kinases inhibitors” (TELIGENE LTD, priority 2017, dated 2022).

Data set [1] has as its system TEL-NTRK1-BaF3 cell. Description: TEL-NTRK1-BaF3 cell assay (CellTiter-Glo viability, 72 hours). In kind it is cell-based. The protocol:
(b) A Representative Number of Compounds were Assayed Against TEL-NTRK1-BaF3 Cell.
I. Prepare Compound Plate
Compounds to be assayed were dissolved in 100% DMSO to prepare a […] mother solution, which underwent 3× series dilution to prepare solutions with concentrations of 10 mM, 3.333 mM, 1.111 mM, 0.370 mM, 0.123 mM, 0.041 mM, 0.014 mM, all of which stored in 0.5 mL sterile eppendorf (Corning, N.Y., USA). At the same time prepare a blank sample as control containing DMSO only with the same volume as the compound solutions. The 9 samples on the Compound plate were store at −20° C. in vacuum.
II. Cell Culture Conditions
TEL-NTRK1-BaF3 cell line was cultured in RPMI 1640 (Corning, N.Y., USA)+10% fetal calf serum (Gibco/Invitrogen, USA) for two generations after resuscitation. Stored for future use.
III. Assay and Data Analysis
Cells (2,000-2,500 cells per well) at log phase were harvested and inoculated in wells of a white, opaque cell culture plate (Corning 3570, NY, USA). The volume of suspensions comprising cells in each well was 100 μL. Compounds from the Compound plate were added 0.1 μL per well to the cell culture plate to reach a final compound concentrations of 10 μM, 3.3 μM, 1.1 μM, 0.37 μM, 0.12 μM, 0.04 μM, and 0.014 μM. Incubated at 37° C. and 5% CO2 culture chamber for 72 hours. Ten μL CellTiter-Glo® Luminescent Cell Viability Assay Reagent was added to each well, wait for 10 minutes, then read using Evision Plate-Reader.
The following Table B lists compounds representative of the disclosure and their activity in TEL-NTRK1-BaF3 Cell assay.

A short description of data set [2]: Solubility measurement in pH 4.0 buffer (HPLC). In kind it is physicochemical. As to conditions: pH 4.0 buffer solution (20 mM), aqueous buffer, thermodynamic from solid; pH 4.0 buffer (20 mM), 25° C. On the procedure: (c) Solubility Measurement of a Representative Number of Compounds
Solubility measurement procedure may include:
Preparation of reference standard solution: 2 mg of the testing compound was added individually to 100 mL volumetric flask each. The compound was diluted with acetonitrile to 100 mL.
Preparation of sample solution: 2 mg of the testing compound was added individually to 2 mL eppendorf tube (EP), followed by the addition of 1 mL of pH 4.0 buffer solution (20 mM). The solution was shaken for 2 minutes and left for 30 minutes at 25° C. After standing for 30 minutes, precipitate was formed at the bottom of the EP. The solution was filtered through a 0.2 μm membrane filter, and then diluted by 50 times with water.
The standard and sample solutions were injected into the HPLC on a Shim-Pack CLC-ODS C18 column (150 mm×6.0 mm, Sum) with the same volume. The mobile phase consists of acetonitrile with 2% trichloromethane—20 mM KH2PO4 buffer (pH=7.0) at a flow rate of 1 mL/minutes (40:60). The detection wavelength was at 264 nm. Calculation: solubility of sample=the concentration of standard×Area of sample×50/Area of standard.
The following Table C lists solubility data for selected compounds.

A short description of data set [3]: Pharmacokinetic study, IV and oral, bioavailability. As to conditions: plasma, oral; rat; 2 mg/kg IV, 5 mg/kg orally; read-out: F (%) oral bioavailability. In kind it is in vivo. An excerpt: (d) Pharmacokinetic Study of a Representative Number of Compounds A representative protocol for the PK (pharmacokinetic) assay was as followed: Compounds were given either IV or orally to the same animals. […] Analysis: LC-MS/MS was used to calculate PK parameters: t1/2, tmax, Cmax, Vss and AUC, etc. The following TABLE D lists selected compounds and their bioavailability.

A short description of data set [4]: Brain penetration (brain to plasma ratio). Format: in vivo.
Data set [5] is described as follows: One-month toxicity study in rat. As to conditions: 30 mg/kg and 100 mg/kg, end of administration and recovery periods. Format: in vivo. The protocol:
A representative number of compounds, including Compound 1 (LOXO-101) and Compound 3, were tested in a typical one-month toxicity studies in rat with dosages of 30 mg/kg and 100 mg/kg.

Data set [6] deals with TRK-A (Homo sapiens (Human), UniProt P04629). Description: In vitro kinase activity inhibition assay (Caliper), TRK-A. Format: biochemical. The protocol: (§1) (a) An In Vitro Assay which Determines the Ability of a Test Compound to Inhibit Kinase Activity
TRK-A, sequence (P04629 33-796, species assumed): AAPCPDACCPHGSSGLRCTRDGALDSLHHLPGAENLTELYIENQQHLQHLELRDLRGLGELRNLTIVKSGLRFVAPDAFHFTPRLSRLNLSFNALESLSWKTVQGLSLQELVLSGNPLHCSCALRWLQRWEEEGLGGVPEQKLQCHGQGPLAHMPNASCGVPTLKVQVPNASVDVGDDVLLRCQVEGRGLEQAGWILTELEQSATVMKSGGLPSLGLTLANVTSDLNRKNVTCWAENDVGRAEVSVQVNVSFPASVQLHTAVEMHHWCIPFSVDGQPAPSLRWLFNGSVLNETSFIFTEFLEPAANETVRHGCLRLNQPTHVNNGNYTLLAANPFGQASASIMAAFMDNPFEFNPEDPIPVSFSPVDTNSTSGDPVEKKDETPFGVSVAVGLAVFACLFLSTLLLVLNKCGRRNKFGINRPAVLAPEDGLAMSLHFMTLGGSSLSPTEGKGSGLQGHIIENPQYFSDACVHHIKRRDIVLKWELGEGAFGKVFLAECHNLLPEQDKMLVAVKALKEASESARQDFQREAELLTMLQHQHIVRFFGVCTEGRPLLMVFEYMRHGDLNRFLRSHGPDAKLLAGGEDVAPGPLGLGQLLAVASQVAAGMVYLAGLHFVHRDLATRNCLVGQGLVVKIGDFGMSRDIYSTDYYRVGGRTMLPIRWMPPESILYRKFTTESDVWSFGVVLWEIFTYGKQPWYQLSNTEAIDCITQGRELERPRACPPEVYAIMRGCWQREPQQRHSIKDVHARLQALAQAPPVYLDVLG
(§2) I. Prepare 1× Kinase Base Buffer and Stop Buffer for Testing Kinases
1) 1× Kinase base buffer (for TRK-A)
(§3) II. Prepare Source Plate with Compound
(§4) 1) Dilute the compound to 50× of the final concentration in reaction by 100% DMSO. Transfer 100 μl of this compound dilution to a well in a 96-well plate. For example, if the desired highest inhibitor concentration is 10 μM, then prepare a 500 μM of compound DMSO solution in this step.
(§5) 2) Perform 3× series dilution of the compound dilution obtained in step 1) with 100% DMSO to provide 9 more diluted solutions of the compound.
(§6) 3) Add 100 μl of 100% DMSO to two empty wells for no compound control and no enzyme control in the same 96-well plate. Mark the plate as source plate.
(§7) 4) Prepare intermediate plate
(§8) Transfer 10 μl of compound from the source plate to a new 96-well plate as the intermediate plate.
(§9) Add 90 μl of 1× Kinase base buffer to each well of the intermediate plate.
(§10) Mix the compounds in intermediate plate for […] on a shaker.
Transfer 5 μl of each well from the 96-well intermediate plate to a 384-well plate in duplicates. For example, A1 of the 96-well plate is transferred to A1 and A2 of the 384-well plate. A2 of the 96-well plate is transferred to A3 and A4 of the 384-well plate, and so on. […]

Data set [7] has as its target ROS1 (Homo sapiens (Human), UniProt P08922). Briefly: In vitro kinase activity inhibition assay (Caliper), ROS1. Format: biochemical. As to conditions: read-out: ROS-1 IC50. On the procedure: as §1, §2, §3, §4, §5, §6, §7, §8, §9, §10
Transfer 5 μl of each well from the 96-well intermediate plate to a 384-well plate in duplicates. For example, A1 of the 96-well plate is transferred to A1 and A2 of the 384-well plate. A2 of the 96-well plate is transferred to A3 and A4 of the 384-well plate, and so on.
1) Prepare 2.5× enzyme solution Add kinase in 1× kinase base buffer. […]

The structures appear in SMILES notation. Values after ≈ are worked out from the molar mass of the structure shown. Read-outs that look alike come from different tables or passages of the source. Bounds are passed on as bounds.

ROS1, sequence (P08922 28-2347, species assumed): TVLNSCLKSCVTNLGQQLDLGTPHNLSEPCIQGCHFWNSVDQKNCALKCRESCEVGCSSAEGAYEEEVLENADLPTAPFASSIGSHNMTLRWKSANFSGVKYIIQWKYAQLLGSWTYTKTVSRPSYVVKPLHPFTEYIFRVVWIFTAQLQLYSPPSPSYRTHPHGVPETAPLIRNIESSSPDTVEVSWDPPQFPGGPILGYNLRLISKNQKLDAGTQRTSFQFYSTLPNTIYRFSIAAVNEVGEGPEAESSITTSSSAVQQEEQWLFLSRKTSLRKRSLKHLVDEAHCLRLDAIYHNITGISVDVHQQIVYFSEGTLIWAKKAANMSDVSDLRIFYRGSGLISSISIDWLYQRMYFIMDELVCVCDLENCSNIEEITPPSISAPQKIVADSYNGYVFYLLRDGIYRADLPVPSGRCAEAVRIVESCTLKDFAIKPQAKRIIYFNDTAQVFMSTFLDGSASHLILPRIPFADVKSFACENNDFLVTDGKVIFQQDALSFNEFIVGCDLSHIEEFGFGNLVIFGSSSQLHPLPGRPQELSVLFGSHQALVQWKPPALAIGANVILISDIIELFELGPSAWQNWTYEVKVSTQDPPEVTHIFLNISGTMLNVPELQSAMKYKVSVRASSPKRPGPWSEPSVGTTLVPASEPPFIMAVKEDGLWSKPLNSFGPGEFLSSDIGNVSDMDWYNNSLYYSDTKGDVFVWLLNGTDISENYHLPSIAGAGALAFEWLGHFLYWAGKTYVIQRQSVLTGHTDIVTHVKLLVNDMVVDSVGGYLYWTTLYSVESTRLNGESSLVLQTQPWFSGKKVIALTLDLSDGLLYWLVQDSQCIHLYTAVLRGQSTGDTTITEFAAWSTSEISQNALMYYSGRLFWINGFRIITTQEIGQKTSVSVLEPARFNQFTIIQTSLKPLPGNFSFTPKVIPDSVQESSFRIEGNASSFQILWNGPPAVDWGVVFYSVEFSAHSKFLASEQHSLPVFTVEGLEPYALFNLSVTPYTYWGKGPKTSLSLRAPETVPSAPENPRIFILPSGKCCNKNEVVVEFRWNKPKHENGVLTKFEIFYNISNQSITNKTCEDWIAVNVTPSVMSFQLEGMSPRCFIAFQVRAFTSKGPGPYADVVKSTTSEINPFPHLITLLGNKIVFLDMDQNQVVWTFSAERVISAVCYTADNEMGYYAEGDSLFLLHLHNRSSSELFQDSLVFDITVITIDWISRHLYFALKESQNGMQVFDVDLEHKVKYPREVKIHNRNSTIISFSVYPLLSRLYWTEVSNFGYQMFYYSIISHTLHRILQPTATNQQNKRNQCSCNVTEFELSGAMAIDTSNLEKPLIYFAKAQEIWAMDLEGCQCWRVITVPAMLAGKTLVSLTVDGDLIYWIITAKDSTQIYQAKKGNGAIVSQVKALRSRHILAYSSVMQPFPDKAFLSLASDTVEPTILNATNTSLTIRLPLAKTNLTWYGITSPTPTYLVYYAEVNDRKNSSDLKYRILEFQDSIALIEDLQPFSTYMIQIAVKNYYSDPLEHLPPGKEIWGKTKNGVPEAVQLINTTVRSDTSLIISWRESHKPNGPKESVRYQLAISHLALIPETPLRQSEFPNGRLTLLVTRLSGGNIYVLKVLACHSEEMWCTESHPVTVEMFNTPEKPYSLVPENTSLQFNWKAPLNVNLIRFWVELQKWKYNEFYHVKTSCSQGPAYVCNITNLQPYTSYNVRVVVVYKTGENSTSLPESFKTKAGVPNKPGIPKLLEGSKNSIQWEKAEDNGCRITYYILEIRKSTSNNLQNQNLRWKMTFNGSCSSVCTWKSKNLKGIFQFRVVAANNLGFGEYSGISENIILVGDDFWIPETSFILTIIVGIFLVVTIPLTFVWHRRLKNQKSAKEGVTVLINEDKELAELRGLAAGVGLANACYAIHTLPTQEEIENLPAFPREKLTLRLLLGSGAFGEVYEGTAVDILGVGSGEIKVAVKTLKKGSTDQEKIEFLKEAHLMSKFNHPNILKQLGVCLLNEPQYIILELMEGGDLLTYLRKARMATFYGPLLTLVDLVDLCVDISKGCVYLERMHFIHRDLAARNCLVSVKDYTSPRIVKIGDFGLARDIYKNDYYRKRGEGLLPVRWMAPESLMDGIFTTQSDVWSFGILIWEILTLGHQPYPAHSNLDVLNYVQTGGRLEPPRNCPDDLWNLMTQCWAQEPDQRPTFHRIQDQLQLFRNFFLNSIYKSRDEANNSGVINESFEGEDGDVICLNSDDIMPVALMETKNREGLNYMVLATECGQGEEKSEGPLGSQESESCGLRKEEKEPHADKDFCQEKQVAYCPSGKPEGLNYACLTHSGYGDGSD

In the case of `O=C(Nc1cnn2ccc(N3CCC[C@@H]3c3cc(F)ccc3F)nc12)N1CC[C@H](O)C1` [Compound 1, reference compound], the GI50 (usually the concentration that inhibits growth by half) in data set [1] (72 h) came out at 25 nM. Also, in data set [2], the concentration in solution (solubility) was 310 µg/mL (≈ 724 µM). Further, the bioavailability (as a rule, the share of a dose that reaches the circulation, judged against a reference dose that is usually intravenous) in data set [3] is 33%. Moreover, the brain penetration result in data set [4] (in vivo) was “low brain penetration”. Also, in data set [5], the “#LYMPH and/or % LYMPH in blood” value is given as “slight decrease” and the “#NEUT and/or % NEUT in blood” value is recorded as “slight increase trend”.
Regarding `CN1CCN(Cc2ccc(C(=O)Nc3cnn4ccc(N5CCC[C@@H]5c5cc(F)ccc5F)nc34)cc2)CC1` [Compound 2], half-maximal inhibition in data set [6] (IC50) was put at 1.8 nM. The GI50 in data set [1] is below 1 nM.
`CN1CCN(Cc2ccc(C(=O)Nc3cnn4ccc(N5CCC[C@@H]5c5cc(F)ccc5F)nc34)cc2)CC1` [Compound 3]: the values for the IC50 in data set [6] and in data set [7] were 3 nM and 104 nM, respectively. Also, the GI50 in data set [1] came to 3 nM. In addition, the solubility (as a rule, the dissolved amount per volume that the medium holds) in data set [2] was 36100 µg/mL (≈ 67900 µM). Also, the bioavailability in data set [3] amounted to 56%. Also, the Kp (in general, the ratio of the level in a tissue or fluid to that in plasma or blood) in data set [4] (brain) worked out at 5.47.
The compound `CCS(=O)(=O)Nc1ccc(C(=O)Nc2cnn3ccc(N4CCC[C@@H]4c4cc(F)ccc4F)nc23)cc1` [Compound 4] showed a 50% growth inhibitory concentration (GI50) in data set [1] (72 h) of 24 nM. Also, in data set [2], the solubility stood at 310 µg/mL (≈ 589 µM).
